# Literature values as cited in patent publication US6803186B2, “Compositions and methods for increasing amino acid absorption in mammals” (The IAMS Company, priority 2001, dated 2004).
# Square brackets hold non-standard residues; d marks the D form. Peptide text beside a SMILES is read from it. Sar = CNCC(=O)O
# Molecular target: T1, PepT1-expressing Caco-2 cells (Homo sapiens, UniProt P46059)
# T1 construct: GlySar uptake by the PepT1-expressing Caco-2 cells; host or cells: Caco-2 cells
# T1 sequence (P46059 1-708): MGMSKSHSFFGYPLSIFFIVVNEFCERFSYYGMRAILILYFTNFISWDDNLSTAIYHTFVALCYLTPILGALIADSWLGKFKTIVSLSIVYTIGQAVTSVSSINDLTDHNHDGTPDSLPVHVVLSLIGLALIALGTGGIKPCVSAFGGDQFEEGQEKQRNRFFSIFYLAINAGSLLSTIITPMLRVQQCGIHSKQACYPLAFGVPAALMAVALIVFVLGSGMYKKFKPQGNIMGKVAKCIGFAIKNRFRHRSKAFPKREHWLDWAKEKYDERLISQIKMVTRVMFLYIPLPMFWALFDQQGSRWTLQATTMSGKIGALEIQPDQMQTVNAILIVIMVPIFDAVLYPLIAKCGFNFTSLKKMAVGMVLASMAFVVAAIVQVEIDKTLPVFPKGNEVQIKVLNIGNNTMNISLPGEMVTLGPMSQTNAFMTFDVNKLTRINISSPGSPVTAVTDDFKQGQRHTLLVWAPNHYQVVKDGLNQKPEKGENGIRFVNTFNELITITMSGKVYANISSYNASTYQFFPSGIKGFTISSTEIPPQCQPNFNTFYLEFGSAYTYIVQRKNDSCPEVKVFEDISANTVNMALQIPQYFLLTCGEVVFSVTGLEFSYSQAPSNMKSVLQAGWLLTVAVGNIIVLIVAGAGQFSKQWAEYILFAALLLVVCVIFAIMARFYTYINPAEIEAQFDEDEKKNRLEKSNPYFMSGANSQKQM
# Conditions: read-out: reported Km for GlySar uptake; cited from earlier work
smiles,measurement,value
"CN(CC(=O)O)C(=O)CN [GlySar, glycylsarcosine] (H-Gly-[Sar]-OH)",Km,1100 µM
